From patent US20240156742A1, “TARGETED MULTIFUNCTIONAL NANOSTRUCTURED LIPID CARRIERS” (TECHNION RESEARCH & DEVELOPMENT FOUNDATION LIMITED, priority 2021, published 2024)

What was measured:
LNCaP cells = details: exposure for 48 hr; cited from earlier work
[1] = Kinetic profile of in vitro drug release by dialysis; type: physicochemical; details: dialysis in PBS pH 7.4 with 0.1% Tween 80, 37° C., 72 hr; burst within first 10 hr
Protocol: The kinetics of in vitro release of drugs from the loaded NPs and free drugs were studied by the dialysis method. One (1) ml of drug-loaded NPs or free drugs (both systems in DW) were placed in dialysis bags (molecular weight cutoff of 3.5 kDa, Sigma-Aldrich, Merck, Rehovot, Israel) and incubated in 30 ml volume of plasma simulating buffer comprising phosphate-buffered saline (PBS, 10 mM, pH 7.4) containing 0.1% tween 80 for 72 hr, at 37° C., with continuous gentle agitation. At defined time intervals (0, 2, 4, 6, 10, 23, 29, 36, 47, 58, 72 hr), the dialysate was collected and replaced by the same volume of fresh release buffer. To calculate the cumulative release of drugs, the dialysates from each time point were freeze-dried, dissolved in EtOH or DMSO for CTX or ENZ extraction, respectively, filtered through 0.45 μm membrane, and quantified using RP-HPLC, as described above. The results are presented as means of two experiments±SE.
The kinetics of in vitro release of CTX and ENZ from NPs were assessed by dialysis in a large volume of a plasma-simulating buffer for 72 hr at 37° C., with continuous mixing. […] At defined time intervals, the dialysate was replaced with a fresh buffer, and the drug was quantified using RP-HPLC. […]

[2] = tested on: PC-3 non-target cells (PSMA-negative PC cell line); assay: XTT growth inhibition assay, PC-3; type: cell-based; details: Homo sapiens; free drug in growth medium for 72 hr
Protocol: (§1) The selective growth inhibition of CTX-loaded NPs was studied in LNCaP target cells and PC-3 non-target cells, using an XTT-based colorimetric cell proliferation kit as previously described. The preparation of CTX-loaded NPs was performed as described and had undergone 24 hr dialysis before cell exposure, to simulate the conditions in the human body. The dialysis was conducted as described in the “Kinetic profile of in vitro drug release” in the materials and methods section, but with the use of 10% FBS to capture the released CTX. Prior to the experiment, 96-well plates were coated with poly-L-Lysine before cell plating. LNCaP and PC-3 cells were seeded in 96-well plates at 5×10^4 and 2.5×10^4 cells/ml, respectively, and incubated overnight to allow for cell attachment. Following exposure of cells to CTX-loaded NPs at increasing CTX concentrations of 0.001-100 nM for 24 hr, cells were incubated for additional 72 hr with fresh growth medium. Cellular growth inhibition was determined by adding the XTT reagent. Data were plotted using a nonlinear curve fitting of a sigmoidal model (Hill1) with OriginPro 9.0 to obtain a dose-response curve according to Equation (3): […]

[3] = tested on: LNCaP target cells (PSMA-positive PC cell line); assay: XTT growth inhibition assay, LNCaP; type: cell-based; details: Homo sapiens, free drug in growth medium for 72 hr
Protocol: as §1

| in vitro release profile [1] | IC50 [2] | IC50 [3] | SMILES | IC50 (LNCaP cells) |
| --- | --- | --- | --- | --- |
| burst release | 180 ± 40 pM | 250 ± 40 pM | CO[C@H]1C(=O)[C@]2(C)[C@@H](OC)C[C@H]3OC[C@@]3(OC(C)=O)[C@H]2[C@H](OC(=O)c2ccccc2)[C@]2(O)C[C@H](OC(=O)[C@H](O)[C@@H](NC(=O)OC(C)(C)C)c3ccccc3)C(C)=C1C2(C)C [free CTX, Cabazitaxel] | 2600 to 3100 pM |
| burst release | – | – | CNC(=O)c1ccc(N2C(=S)N(c3ccc(C#N)c(C(F)(F)F)c3)C(=O)C2(C)C)cc1F [unencapsulated ENZ, Enzalutamide] | – |
